The values below are quoted from earlier work in publication PMC5131319, “Occurrence, temporal trends, and half-lives of perfluoroalkyl acids (PFAAs) in occupational workers in China” (Scientific Reports, 2016).

Molecules are shown by their SMILES.

The conditions of the series: humans; cited from earlier work.

`O=S(=O)(O)C(F)(F)C(F)(F)C(F)(F)C(F)(F)F` [PFBS, perfluorobutanesulfonate]: the “Half-life based on serum concentrations” value is listed as 26 days.
